Experimental data published in ChEMBL document CHEMBL1134851, “Apoptosis-inducing activity of synthetic intermediates of halichlorine” (Bioorg Med Chem Lett, 2002).

Tested on: THP-1
Assay: Cytotoxicity towards the acute monocytic leukemia cell line (THP-1)
Format: functional, cell-based
Conditions: Homo sapiens

Structure (SMILES)	IC50 [µM]
O=C1CCC[C@H]2CCC[C@]3(CCC[C@@H]3CO)N12	> 100
CCO/C(O)=C/C1=N[C@]2(CCC1)CCC[C@@H]2CO[Si](c1ccccc1)(c1ccccc1)C(C)(C)C	> 100
CCOC(=O)C[C@@H]1CCC[C@@]23CCC[C@@H]2CON13	> 100
COC(=O)C1CC[C@H]2CCC[C@]3(CCC[C@@H]3CO[Si](c3ccccc3)(c3ccccc3)C(C)(C)C)N2C1=O (some centres not stated)	> 100
CCO/C(O)=C/C1=N[C@]2(CCC1)CCC[C@@H]2CO	> 100
N#CC1=CC[C@H]2CCC[C@]3(CCC[C@@H]3CO)N2C1=O	> 100
CCOC(=O)C[C@H]1CCC[C@]2(CCC[C@@H]2CO[Si](c2ccccc2)(c2ccccc2)C(C)(C)C)N1	40
CC(C)(C)[Si](OC[C@H]1CCC[C@]12CCC[C@@H]1CCC(CO)C(=O)N12)(c1ccccc1)c1ccccc1 (some centres not stated)	63
CC(C)(C)[Si](OC[C@H]1CCC[C@]12CCC[C@H](CCO)N2)(c1ccccc1)c1ccccc1	8.9
O=C1OCC[C@H]2CCC[C@]3(CCC[C@@H]3CO)N12	> 100
CC(C)(C)[Si](OC[C@H]1CCC[C@]12CCC[C@@H]1CCCC(=O)N12)(c1ccccc1)c1ccccc1	71
COC(=O)C1CC[C@H]2CCC[C@]3(CCC[C@@H]3CO)N2C1=O (some centres not stated)	> 100
CC(C)(C)[Si](OC[C@H]1CCC[C@]12CCC[C@@H]1CCOC(=O)N12)(c1ccccc1)c1ccccc1	32
CC(=O)N1[C@@H](CCO)CCC[C@]12CCC[C@@H]2CO[Si](c1ccccc1)(c1ccccc1)C(C)(C)C	25
CC(C)(C)[Si](OC[C@H]1CCC[C@]12CCC[C@@H]1CCC(CO)CN12)(c1ccccc1)c1ccccc1 (some centres not stated)	32
COC(=O)C1=CC[C@H]2CCC[C@]3(CCC[C@@H]3CO[Si](c3ccccc3)(c3ccccc3)C(C)(C)C)N2C1=O	5
O=C1OC[C@H]2CCC[C@]23CCC[C@H](CCO)N13	> 100
